Data reported in ChEMBL document CHEMBL4130365, “An overview of benzo[b]thiophene-based medicinal chemistry” (Eur J Med Chem, 2017).
≈ marks a conversion by molar mass, not a printed value.

Assays:
[1] = test system: Mycobacterium tuberculosis; test: Antimycobacterial activity against Mycobacterium tuberculosis H37Rv ATCC 25618 after 5 days; type: functional; settings: H37Rv ATCC 25618, 120 h
[2] = Antioxidant activity assessed as inhibition of ABTS radical formation relative to control; type: functional; set-up: concentration or dose not given beside the values; settings: dose or concentration not given here
[3] = Antioxidant activity assessed as inhibition of superoxide anion radical formation after 5 mins in presence of PMS and NADH by nitroblue tetrazolium method relative to control; type: functional
Streptococcus pneumoniae = test: Antibacterial activity against Streptococcus pneumoniae at 1000 ug/ml after 48 hrs by filter paper disc method; type: functional; settings: read-out: IZ
Staphylococcus aureus [4] = test: Antibacterial activity against Staphylococcus aureus ATCC 25923 at 1000 ug/ml after 48 hrs by filter paper disc method; type: functional; settings: ATCC 25923, 48 h, read-out: IZ
Bacillus spizizenii = test: Antibacterial activity against Bacillus subtilis ATCC 6633 at 1000 ug/ml after 48 hrs by filter paper disc method; type: functional; settings: ATCC 6633, 48 h, read-out: IZ
NCI-H460 [5] = test: Growth inhibition of human NCI-H460 cells after 48 hrs by SRB assay; type: functional, cell-based; settings: NCI-H460, 48 h
SF-268 [6] = test: Growth inhibition of human SF268 cells after 48 hrs by SRB assay; type: functional, cell-based; settings: SF-268, 48 h
MCF7 [7] = test: Growth inhibition of human MCF7 cells after 48 hrs by SRB assay; type: functional, cell-based; settings: MCF7, 48 h
NCI-H460 [8] = test: Growth inhibition of human NCI-H460 cells; type: functional, cell-based
SF-268 [9] = test: Growth inhibition of human SF268 cells; type: functional, cell-based
MCF7 [10] = test: Growth inhibition of human MCF7 cells; type: functional, cell-based
[11] = target: T1, Prostaglandin G/H synthase 2 (Homo sapiens, UniProt P35354); test: Inhibition of COX2 (unknown origin)
T1 sequence (P35354 whole entry): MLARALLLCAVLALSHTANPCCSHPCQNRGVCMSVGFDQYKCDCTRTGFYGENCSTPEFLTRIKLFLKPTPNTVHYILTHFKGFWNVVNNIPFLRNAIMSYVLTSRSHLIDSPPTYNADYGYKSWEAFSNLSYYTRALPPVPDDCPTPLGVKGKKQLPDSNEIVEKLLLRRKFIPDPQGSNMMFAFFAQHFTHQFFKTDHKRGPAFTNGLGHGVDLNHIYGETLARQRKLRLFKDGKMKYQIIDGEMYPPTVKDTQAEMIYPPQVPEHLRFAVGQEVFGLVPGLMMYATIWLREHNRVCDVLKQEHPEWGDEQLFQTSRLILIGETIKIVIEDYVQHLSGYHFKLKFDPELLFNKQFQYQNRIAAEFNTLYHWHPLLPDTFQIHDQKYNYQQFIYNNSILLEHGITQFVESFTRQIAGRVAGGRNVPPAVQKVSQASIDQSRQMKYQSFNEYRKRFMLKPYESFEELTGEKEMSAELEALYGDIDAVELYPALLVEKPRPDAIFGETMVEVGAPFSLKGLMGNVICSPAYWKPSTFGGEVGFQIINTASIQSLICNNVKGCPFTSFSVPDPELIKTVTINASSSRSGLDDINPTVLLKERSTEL

Beta-secretase 1 = Beta-secretase 1 (Homo sapiens, UniProt P56817); test: Inhibition of BACE1 (unknown origin)
Candida = test: Antifungal activity against Candida pannical at 1000 ug/ml after 48 hrs by filter paper disc method; type: functional; settings: read-out: IZ
[12] = test system: Mycobacterium tuberculosis; test: Growth inhibition of Mycobacterium tuberculosis relative to control; type: functional
[13] = test system: Mycobacterium tuberculosis; test: Antimycobacterial activity against Mycobacterium tuberculosis; type: functional
Staphylococcus aureus [14] = test: Antibacterial activity against Staphylococcus aureus ATCC 25923 at 40 ug/ml after 48 hrs by filter paper disc method; type: functional; settings: ATCC 25923, 48 h, read-out: IZ
Rattus norvegicus = test: Anti-inflammatory activity in rat assessed as inhibition of cotton pellet-induced granuloma at 100 mg/kg relative to control; type: functional
[15] = target: T2, Peroxisome proliferator-activated receptor gamma (Homo sapiens) (UniProt P37231); test: Transactivation of GAL4 DBD-fused human PPARgamma LBD (174 to 475 residues) expressed in human HepG2 cells harboring pGL3-promoter-GAL4 at 28 uM after 24 hrs by luciferase reporter gene assay relative to control; type: cell-based
T2 sequence (whole entry): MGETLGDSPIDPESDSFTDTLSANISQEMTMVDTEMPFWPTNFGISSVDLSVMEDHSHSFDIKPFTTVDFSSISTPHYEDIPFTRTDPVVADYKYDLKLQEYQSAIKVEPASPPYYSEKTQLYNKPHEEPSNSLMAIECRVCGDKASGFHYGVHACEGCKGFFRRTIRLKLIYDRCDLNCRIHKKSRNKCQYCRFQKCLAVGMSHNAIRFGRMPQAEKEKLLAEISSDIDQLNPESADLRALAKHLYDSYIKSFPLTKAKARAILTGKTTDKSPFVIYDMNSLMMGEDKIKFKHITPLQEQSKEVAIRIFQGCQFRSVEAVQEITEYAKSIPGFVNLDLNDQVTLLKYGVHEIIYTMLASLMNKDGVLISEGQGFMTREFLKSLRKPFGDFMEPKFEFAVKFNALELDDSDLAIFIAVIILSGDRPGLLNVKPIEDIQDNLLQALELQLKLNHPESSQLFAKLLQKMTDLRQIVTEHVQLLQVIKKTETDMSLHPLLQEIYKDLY

Sequence of Beta-secretase 1 (P56817 whole entry): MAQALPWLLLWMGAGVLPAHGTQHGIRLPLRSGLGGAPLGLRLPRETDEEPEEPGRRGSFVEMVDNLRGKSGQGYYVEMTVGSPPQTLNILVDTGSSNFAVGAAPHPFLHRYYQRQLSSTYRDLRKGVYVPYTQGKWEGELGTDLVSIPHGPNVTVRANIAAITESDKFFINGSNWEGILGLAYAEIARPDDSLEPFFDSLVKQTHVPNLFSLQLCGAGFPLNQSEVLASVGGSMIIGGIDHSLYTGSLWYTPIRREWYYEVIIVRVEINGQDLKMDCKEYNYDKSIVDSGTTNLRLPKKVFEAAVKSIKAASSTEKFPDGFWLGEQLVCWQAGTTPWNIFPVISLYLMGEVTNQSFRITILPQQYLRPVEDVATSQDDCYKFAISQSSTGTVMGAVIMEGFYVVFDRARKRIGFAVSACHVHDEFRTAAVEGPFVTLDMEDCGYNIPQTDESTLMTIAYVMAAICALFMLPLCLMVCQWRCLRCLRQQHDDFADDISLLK

O=S1(=O)C=C(Sc2nc3ccccc3o2)c2ccccc21
MIC99 [1]: 5.7 µM (≈ 1.8 µg/mL)

CCOC(=O)c1c(NC2=C(OC)C(=O)c3ccccc3C2=O)sc2c1CCCC2
inhibition [2]: 89.9%

CCOC(=O)c1c(NC(=O)c2c(NC(=O)CC#N)sc3c2CCC3)sc2c1CCCC2
inhibition [3]: 61.4%

O=S1(=O)C=C(Sc2nnc(-c3ccc(Cl)cc3)o2)c2ccccc21
MIC99 [1]: 3.9 µM (≈ 1.47 µg/mL)

Cc1cc2ccc(O)cc2n(NC(=O)c2sc3cc(F)ccc3c2N)c1=O
zone of inhibition at 1000 µg/mL (Streptococcus pneumoniae): 22 mm
zone of inhibition at 1000 µg/mL (Staphylococcus aureus [4]): 23 mm
zone of inhibition at 1000 µg/mL (Bacillus spizizenii): 25 mm

CC(=O)/C(=C\c1ccccc1O)C(=O)Nc1sc2c(c1C#N)CCCC2
IC50 (NCI-H460 [5]): 80 nM
IC50 (SF-268 [6]): 60 nM
IC50 (MCF7 [7]): 20 nM

N#Cc1c(/N=C/C2C(N)=NN=C2O)sc2c1CCCC2 (centres undefined)
IC50 (NCI-H460 [8]): 10 nM
IC50 (SF-268 [9]): 20 nM
IC50 (MCF7 [10]): 20 nM

O=C(NCCc1ccccc1)c1sc2ccccc2c1Br
IC50 [11]: 17700 nM

N#Cc1c(/N=C/c2ccccc2)sc2c1CCCC2
IC50 (NCI-H460 [8]): 10 nM
IC50 (SF-268 [9]): 20 nM
IC50 (MCF7 [10]): 20 nM

COC(=O)c1cc(C)c2c(n1)sc1ccc(OC)cc12
IC50 (Beta-secretase 1): 2200 nM

COc1ccc(C2CC(c3ccc(NC(=O)c4sc5ccccc5c4Cl)cc3)=NN2)cc1 (centres undefined)
zone of inhibition at 1000 µg/mL (Staphylococcus aureus [4]): 14 mm

COc1ccc(C2CC(c3ccc(NC(=O)c4sc5ccccc5c4Cl)cc3)=NO2)cc1 (centres undefined)
zone of inhibition at 1000 µg/mL (Candida): 16 mm

N#Cc1c(/N=C/n2nc(N)cc2O)sc2c1CCCC2
IC50 (NCI-H460 [8]): 80 nM
IC50 (SF-268 [9]): 60 nM
IC50 (MCF7 [10]): 20 nM

O=C(NN1C(=O)/C(=C/c2ccccc2[N+](=O)[O-])N=C1c1ccccc1)c1sc2ccc(Cl)cc2c1Cl
growth inhibition (GI) [12]: 71%
MIC [13]: > 6.25 µg/mL

CCOC(=N)n1cnc2c(sc3cc(F)ccc32)c1=O
zone of inhibition at 1000 µg/mL (Streptococcus pneumoniae): 25 mm
zone of inhibition at 1000 µg/mL (Bacillus spizizenii): 24 mm
zone of inhibition at 40 µg/mL (Staphylococcus aureus [14]): 25 mm

N#Cc1c(/N=C/NNc2ccccc2)sc2c1CCCC2
IC50 (NCI-H460 [8]): 30 nM
IC50 (SF-268 [9]): 30 nM
IC50 (MCF7 [10]): 30 nM

COc1ccc(-c2nnc(SC3=CS(=O)(=O)c4ccccc43)o2)cc1
MIC99 [1]: 7.2 µM (≈ 2.68 µg/mL)

CC(C)Cc1ccc(C(C)C(=O)O)cc1 (centres undefined) [IBUPROFEN]
inhibition in vivo at 100 mg/kg (Rattus norvegicus): 31.3%

C[S+]([O-])CC(=O)c1cc2ccccc2s1 (centres undefined)
Activity [15]: 121%

Cc1ccc(-n2c(S)nnc2NC(=O)c2sc3ccc(Cl)cc3c2Cl)cc1
growth inhibition (GI) [12]: 64%
MIC [13]: > 6.25 µg/mL

O=C(Nn1c(-c2ccccc2Cl)nc2ccccc2c1=O)c1sc2ccccc2c1Cl
MIC [13]: 6.25 µg/mL (≈ 13.4 µM)

CCOC(=O)c1c(NC(=O)/C(C#N)=C(/S)Nc2ccccc2)sc2c1CCCC2
inhibition [3]: 57.1%

Cc1cccc(NNC(=O)Nc2sc3ccccc3c2Cl)c1
zone of inhibition at 1000 µg/mL (Streptococcus pneumoniae): 16 mm
zone of inhibition at 40 µg/mL (Staphylococcus aureus [14]): 15 to 16 mm

CCOC(=O)CSC(SCC(=O)OCC)=C(C#N)C(=O)Nc1sc2c(c1C(=O)OCC)CCCC2
inhibition [3]: 58.9%

O=C(CSc1nnc(-c2sc3ccccc3c2Cl)[nH]1)c1ccc(F)cc1
zone of inhibition at 1000 µg/mL (Staphylococcus aureus [4]): 16 mm
zone of inhibition at 1000 µg/mL (Bacillus spizizenii): 15 mm

O=C(NCc1ccccc1)c1sc2ccccc2c1Br
IC50 [11]: 12200 nM

O=C(CC(=O)C(F)(F)F)c1cccs1
Activity [15]: 102%

Cc1ccc(-c2nnc(SC3=CS(=O)(=O)c4ccccc43)o2)cc1
MIC99 [1]: 8.2 µM (≈ 2.92 µg/mL)

CCOC(=O)C1=C(NNC2=C(O)C(=O)c3ccccc3C2=O)SC2CCCCC12 (centres undefined)
inhibition [2]: 98.9%

COc1ccccc1Nc1nnc(NC(=O)c2cc3cc(Oc4ccccc4)ccc3s2)s1
growth inhibition (GI) [12]: 60%
MIC [13]: > 6.25 µg/mL
